Assay results reported in PMC11614538, “The proline-rich antimicrobial peptide B7-005: low bacterial resistance, safe for human cells and effective in zebrafish embryo bacteraemia model” (Open Biology, 2024).
Values after ≈ are worked out from the molar mass of the structure shown. Residues, ends and D or L forms follow the SMILES beside them.

Columns and labels:
[1] = system: E. coli ATCC 25922; assay: microbe, parasite or virus in culture; settings: for MIC after 14th passage: 14 daily passages at one-half MIC, 18 h; for MIC: Escherichia coli, ATCC25922
Experimental: Escherichia coli ATCC 25922 was purchased from the American Type Culture Collection (ATCC) (Manassas, Virginia, USA) and stored at −80°C as glycerol stock until use. Bacterial cultures were grown overnight in sterile Müller–Hinton broth (MHB) (Difco Inc.) at 37°C under agitation (140 r.p.m.). The next day, the cultures were diluted 1 : 30 in new MHB and incubated as described above for about 2 h (mean logarithmic phase) until they reached an optical density at 600 nm of about 0.3 and then diluted in fresh MHB to the desired concentrations.
The effects of human serum on the antimicrobial activity of B7-005 were assessed by performing a minimum inhibitory concentration (MIC) assay with some modifications. Non-heat-inactivated human serum (Merk Life Science S.r.l., USA) was diluted to 50%, 40%, 30%, 25%, and 20% (v/v) in MHB and the solutions were aliquoted into the wells of a round-bottomed 96-well microtitre plate (Sarstedt, Milan, Italy). Samples with no serum were used for comparison. B7-005 was diluted in MHB added with the proper amount of serum to a concentration of 128 μM, added to the first column of the plate and serially diluted twofold in MHB, added with the proper amount of serum, in the subsequent wells in a final volume of 50 μl. Then 50 μl of a mid-log suspension of 5 × 10^5 CFU ml^−1 E. coli ATCC 25922 cells prepared in MHB added with the proper amount of serum was added to each well of the plate, halving the final concentration of bacteria and peptide. The plate was incubated at 37°C for 18 h. The MIC value was calculated as the lowest concentration of the compound resulting in complete inhibition of visible bacterial growth. MIC values were determined by performing at least three independent experiments (n ≥ 3).
The resistance selection assay was performed by modifying a previously described method. First, the MIC values of each antimicrobial compound (PrAMP or antibiotic) against E. coli ATCC 25922 were determined and recorded as described above. Serial sub-culturing was started by harvesting bacterial cells growing at one-half MIC and inoculating them into fresh MHB. […] This inoculum was incubated o/n and subjected to another MIC test. After 18 h of incubation, the cells growing at one-half MIC were harvested and used for another similar MIC assay. The process was repeated for 7 or 14 daily passages.

[2] = system: zebrafish larvae infection model; settings: simultaneous injection of pathogens and peptide versus post-infection administration; ref [40]; cited from earlier work
Description: In the current work, the infection of zebrafish larvae with E. coli and their treatment with B7-005 were strictly controlled performing them by microinjection in the Cuvier duct. […] To better ...

Molecule: CC[C@H](C)[C@H](NC(=O)[C@H](CCCNC(=N)N)NC(=O)[C@@H](N)CCCNC(=N)N)C(=O)N[C@@H](CCCNC(=N)N)C(=O)N1CCC[C@H]1C(=O)N[C@@H](CCCNC(=N)N)C(=O)N1CCC[C@H]1C(=O)N1CCC[C@H]1C(=O)N[C@@H](CCCNC(=N)N)C(=O)N[C@@H](CC(C)C)C(=O)N1CCC[C@H]1C(=O)N[C@@H](CCCNC(=N)N)C(=O)N1CCC[C@H]1C(=O)N[C@@H](CCCNC(=N)N)C(=O)N1CCC[C@H]1C(=O)N[C@@H](CCCNC(=N)N)C(=O)O [Bac7(1-16)] (H-RRIRPRPPRLPRPRPR-OH)
- MIC after 14th passage ([1]; MHB): 128 µM (≈ 266 µg/mL)

Molecule: CC[C@H](C)[C@H](NC(=O)[C@H](CCCNC(=N)N)NC(=O)[C@@H](N)CCCNC(=N)N)C(=O)N[C@@H](CCCNC(=N)N)C(=O)N1CCC[C@H]1C(=O)N[C@@H](CCCNC(=N)N)C(=O)N1CCC[C@H]1C(=O)N1CCC[C@H]1C(=O)N[C@@H](CCCNC(=N)N)C(=O)N[C@@H](CC(C)C)C(=O)N1CCC[C@H]1C(=O)N[C@@H](CCCNC(=N)N)C(=O)N1CCC[C@H]1C(=O)N[C@@H](CCCNC(=N)N)C(=O)N1CCC[C@H]1C(=O)N[C@@H](CCCNC(=N)N)C(=O)N1CCC[C@H]1C(=O)N[C@@H](CC(C)C)C(=O)N1CCC[C@H]1C(=O)N[C@@H](Cc1ccccc1)C(=O)N1CCC[C@H]1C(=O)N[C@@H](CCCNC(=N)N)C(=O)N1CCC[C@H]1C(=O)NCC(=O)N1CCC[C@H]1C(=O)N[C@@H](CCCNC(=N)N)C(=O)N1CCC[C@H]1C(=O)N[C@H](C(=O)N1CCC[C@H]1C(=O)N[C@@H](CCCNC(=N)N)C(=O)N1CCC[C@H]1C(=O)N[C@@H](CC(C)C)C(=O)N1CCC[C@H]1C(=O)N[C@@H](Cc1ccccc1)C(=O)N1CCC[C@H]1C(=O)O)[C@@H](C)CC [Bac7(1-35)] (H-RRIRPRPPRLPRPRPRPLPFPRPGPRPIPRPLPFP-OH; N-terminus and C-terminus assumed)
- MIC after 14th passage ([1]; MHB): 128 µM (≈ 539 µg/mL)
- passage (cycle) after which MIC started to increase ([1]; serial passages at one-half MIC, MHB): 5

Molecule: O=C(N[C@H](CO)[C@H](O)c1ccc([N+](=O)[O-])cc1)C(Cl)Cl [chloramphenicol]
- MIC [1]: 1020 µM (≈ 331 µg/mL)
- fold increase in MIC ([1]; after 8 passages at one-half MIC): 64 fold

Molecule: CO[C@H]1/C=C/O[C@@]2(C)Oc3c(C)c(O)c4c(O)c(c(/C=N/N5CCN(C)CC5)c(O)c4c3C2=O)NC(=O)/C(C)=C\C=C\[C@H](C)[C@H](O)[C@@H](C)[C@@H](O)[C@@H](C)[C@H](OC(C)=O)[C@@H]1C [rifampicin]
- MIC [1]: 1020 µM (≈ 843 µg/mL)
- fold increase in MIC ([1]; after 4 passages at one-half MIC): 64 fold

Molecule: Bac5: another PrAMP previously used in a zebrafish larvae infection model (RFRPPIRRPPIRPPFYPPFRPPIRPPIFPPIRPPFRPPLGPFP; Bactenecin 5; UniProt P19660 131-173, looked up)
- efficacy in zebrafish larvae infection model [2]: only effective when the pathogens and peptide were simultaneously injected

Molecule: colistin
- MIC during serial passaging ([1]; throughout the complete serial passaging process): remained substantially unchanged
